ChEMBL document CHEMBL1781923, “Synthesis and anti-tumor evaluation of panaxadiol derivatives” (Eur J Med Chem, 2011)

Columns and labels:
A549 [1] = assay: Cytotoxicity against human A549 cells after 48 hrs by MTT assay; type: functional, cell-based; conditions: A549, 48 h
U2OS [2] = assay: Cytotoxicity against human U2OS cells after 48 hrs by MTT assay; type: functional, cell-based
HepG2 [3] = assay: Cytotoxicity against human HepG2 cells after 48 hrs by MTT assay; type: functional, cell-based; conditions: HepG2, 48 h
[4] = Cytotoxicity against human ES2 cells after 48 hrs by MTT assay; type: functional, cell-based; conditions: ES-2, 48 h
HepG2 [5] = assay: Cytotoxicity against human HepG2 cells assessed as cell viability at 25 uM after 48 hrs by MTT assay; type: functional; conditions: HepG2, 48 h, read-out: Activity
HepG2 [6] = assay: Cytotoxicity against human HepG2 cells assessed as cell viability at 50 uM after 48 hrs by MTT assay; type: functional; conditions: HepG2, 48 h, read-out: Activity
A549 [7] = assay: Cytotoxicity against human A549 cells assessed as cell viability at 100 uM after 48 hrs by MTT assay; type: functional; conditions: A549, 48 h, read-out: Activity
[8] = Cytotoxicity against human ES2 cells assessed as cell viability at 50 uM after 48 hrs by MTT assay; type: functional; conditions: ES-2, 48 h, read-out: Activity
A549 [9] = assay: Cytotoxicity against human A549 cells assessed as cell viability at 50 uM after 48 hrs by MTT assay; type: functional; conditions: A549, 48 h, read-out: Activity
U2OS [10] = assay: Cytotoxicity against human U2OS cells assessed as cell viability at 25 uM after 48 hrs by MTT assay; type: functional; conditions: read-out: Activity
[11] = Cytotoxicity against human ES2 cells assessed as cell viability at 25 uM after 48 hrs by MTT assay; type: functional; conditions: ES-2, 48 h, read-out: Activity
U2OS [12] = assay: Cytotoxicity against human U2OS cells assessed as cell viability at 50 uM after 48 hrs by MTT assay; type: functional; conditions: read-out: Activity

Structure (SMILES)	IC50 (A549 [1]) [µM]	IC50 (U2OS [2]) [µM]	IC50 (HepG2 [3]) [µM]	IC50 [4] [µM]	viability at 25 µM (HepG2 [5]) [%]	viability at 50 µM (HepG2 [6]) [%]	viability at 100 µM (A549 [7]) [%]	viability at 50 µM [8] [%]	viability at 50 µM (A549 [9]) [%]	viability at 25 µM (U2OS [10]) [%]	viability at 25 µM [11] [%]	viability at 50 µM (U2OS [12]) [%]
C=CCCCCCCCCC(=O)O[C@H]1CC[C@]2(C)[C@H]3C[C@@H](O)[C@@H]4[C@@H]([C@@]5(C)CCCC(C)(C)O5)CC[C@@]4(C)[C@]3(C)CC[C@H]2C1(C)C	> 50	31.6	> 50	19.4	–	–	–	–	–	–	–	–
CC1(C)CCC[C@](C)([C@H]2CC[C@]3(C)[C@@H]2[C@H](O)C[C@@H]2[C@@]4(C)CC[C@H](OC(=O)CN)C(C)(C)[C@@H]4CC[C@]23C)O1	14	13.7	11.3	9.9	10.3	10	13.5	6.66	18.7	13	7.51	12
CCCCCCCC/C=C/CCCCCCCCCCCC(=O)O[C@H]1CC[C@]2(C)[C@H]3C[C@@H](O)[C@@H]4[C@@H]([C@@]5(C)CCCC(C)(C)O5)CC[C@@]4(C)[C@]3(C)CC[C@H]2C1(C)C	> 50	40.5	> 50	14.8	–	–	–	–	–	–	–	–
CCC/C=C/C(=O)O[C@H]1CC[C@]2(C)[C@H]3C[C@@H](O)[C@@H]4[C@@H]([C@@]5(C)CCCC(C)(C)O5)CC[C@@]4(C)[C@]3(C)CC[C@H]2C1(C)C	> 50	43.9	> 50	13.7	–	–	–	–	–	–	–	–
CC(C)C(N)C(=O)O[C@H]1CC[C@]2(C)[C@H]3C[C@@H](O)[C@@H]4[C@@H]([C@@]5(C)CCCC(C)(C)O5)CC[C@@]4(C)[C@]3(C)CC[C@H]2C1(C)C (stereo partly specified)	31.8	17.3	9.29	16.2	26.4	11.7	15.4	6.47	21.2	16.4	14.6	13.7
CC(C)CC(N)C(=O)O[C@H]1CC[C@]2(C)[C@H]3C[C@@H](O)[C@@H]4[C@@H]([C@@]5(C)CCCC(C)(C)O5)CC[C@@]4(C)[C@]3(C)CC[C@H]2C1(C)C (stereo partly specified)	24.9	18	5.03	17.9	28.1	15.3	10.5	6.91	18.1	18.1	10.8	14.3
CC1(C)CCC[C@](C)([C@H]2CC[C@]3(C)[C@@H]2[C@H](O)C[C@@H]2[C@@]4(C)CC[C@H](O)C(C)(C)[C@@H]4CC[C@]23C)O1 [PANAXADIOL]	43.1	26.8	37.9	5.61	69	37.7	24.5	12.4	36	53.4	18.8	25.7
C=CC(=O)O[C@H]1CC[C@]2(C)[C@H]3C[C@@H](O)[C@@H]4[C@@H]([C@@]5(C)CCCC(C)(C)O5)CC[C@@]4(C)[C@]3(C)CC[C@H]2C1(C)C	> 50	20.8	> 50	8.02	–	–	–	–	–	–	–	–
C/C=C/C=C/C(=O)O[C@H]1CC[C@]2(C)[C@H]3C[C@@H](O)[C@@H]4[C@@H]([C@@]5(C)CCCC(C)(C)O5)CC[C@@]4(C)[C@]3(C)CC[C@H]2C1(C)C	> 50	43.3	> 50	13.7	–	–	–	–	–	–	–	–
C/C=C(\C)C(=O)O[C@H]1CC[C@]2(C)[C@H]3C[C@@H](O)[C@@H]4[C@@H]([C@@]5(C)CCCC(C)(C)O5)CC[C@@]4(C)[C@]3(C)CC[C@H]2C1(C)C	> 50	14.7	> 50	4.26	–	–	–	–	–	–	–	–
CC/C=C(\C)C(=O)O[C@H]1CC[C@]2(C)[C@H]3C[C@@H](O)[C@@H]4[C@@H]([C@@]5(C)CCCC(C)(C)O5)CC[C@@]4(C)[C@]3(C)CC[C@H]2C1(C)C	> 50	38	> 50	24.2	–	–	–	–	–	–	–	–
CCCCCCCC/C=C/CCCCCCCC(=O)O[C@H]1CC[C@]2(C)[C@H]3C[C@@H](O)[C@@H]4[C@@H]([C@@]5(C)CCCC(C)(C)O5)CC[C@@]4(C)[C@]3(C)CC[C@H]2C1(C)C	> 50	16.6	> 50	20.9	–	–	–	–	–	–	–	–
C=CCCC(=O)O[C@H]1CC[C@]2(C)[C@H]3C[C@@H](O)[C@@H]4[C@@H]([C@@]5(C)CCCC(C)(C)O5)CC[C@@]4(C)[C@]3(C)CC[C@H]2C1(C)C	> 50	39	> 50	11.8	–	–	–	–	–	–	–	–
CC1(C)CCC[C@](C)([C@H]2CC[C@]3(C)[C@@H]2[C@H](O)C[C@@H]2[C@@]4(C)CC[C@H](OC(=O)C5CCCN5)C(C)(C)[C@@H]4CC[C@]23C)O1 (stereo partly specified)	7.63	14.4	8.91	16.7	5.72	6.39	14.1	6.04	19.5	12.4	10.4	8.72
CC(C)=CCC[C@@](C)(O)[C@H]1CC[C@]2(C)[C@@H]1[C@H](O)C[C@@H]1[C@@]3(C)CC[C@H](O[C@@H]4O[C@H](CO)[C@@H](O)[C@H](O)[C@H]4O[C@@H]4O[C@H](CO)[C@@H](O)[C@H](O)[C@H]4O)C(C)(C)[C@@H]3CC[C@]12C	> 100	> 100	> 100	> 100	81.3	76.2	71.1	74.5	75.6	72.2	82	81.3
CSCCC(N)C(=O)O[C@H]1CC[C@]2(C)[C@H]3C[C@@H](O)[C@@H]4[C@@H]([C@@]5(C)CCCC(C)(C)O5)CC[C@@]4(C)[C@]3(C)CC[C@H]2C1(C)C (stereo partly specified)	22.4	16.8	11.8	13.1	28.4	8.56	12.7	6.4	21.6	18.4	13	11.6
CCCCC/C=C/C/C=C/CCCCCCCC(=O)O[C@H]1CC[C@]2(C)[C@H]3C[C@@H](O)[C@@H]4[C@@H]([C@@]5(C)CCCC(C)(C)O5)CC[C@@]4(C)[C@]3(C)CC[C@H]2C1(C)C	> 50	32.1	> 50	17.9	–	–	–	–	–	–	–	–
CC1(C)CCC[C@](C)([C@H]2CC[C@]3(C)[C@@H]2[C@H](O)C[C@@H]2[C@@]4(C)CC[C@H](OC(=O)C(N)Cc5ccccc5)C(C)(C)[C@@H]4CC[C@]23C)O1 (stereo partly specified)	18.6	16.4	8.82	15.2	9.95	8.82	15.2	8.58	20.5	15	10.3	10.9
